≈ marks a conversion by molar mass, not a printed value.
System: Staphylococcus aureus
Test: Antibacterial activity against methicillin-resistant Staphylococcus aureus ATCC 33591 after 16 to 18 hrs by broth microdilution method
Format: functional
Settings: time 16-18 hrs

Structure (SMILES) | MIC [µg/mL]
CCCC[C@H](CN(O)C=O)C(=O)N1CCC[C@H]1c1nnc(-c2ccc(C)cc2)s1 | 0.5 (≈ 1.2 µM)
CCCCc1ccc(-c2nnc([C@@H]3CCCN3C(=O)[C@H](CCCC)CN(O)C=O)s2)cc1 | 2 (≈ 4.36 µM)
CCCC[C@H](CN(O)C=O)C(=O)N1CCC[C@H]1c1nnc(-c2cscn2)s1 | 0.5 (≈ 1.22 µM)
CCCC[C@H](CN(O)C=O)C(=O)N1CCC[C@H]1c1nnc(-c2ccc([N+](=O)[O-])cc2C(F)(F)F)s1 | 0.5 (≈ 0.97 µM)
CCCC[C@H](CN(O)C=O)C(=O)N1CCC[C@H]1c1nnc(-c2ccnc(C(F)(F)F)c2)s1 | 0.25 (≈ 0.53 µM)
CCCC[C@H](CN(O)C=O)C(=O)N1CCC[C@H]1c1nnc(-c2ccc(OC)cc2)s1 | 0.25 (≈ 0.578 µM)

System: Staphylococcus aureus
Test: Antibacterial activity against methicillin-susceptible Staphylococcus aureus ATCC 25923 after 16 to 18 hrs by broth microdilution method
Format: functional
Settings: time 16-18 hrs

Structure (SMILES) | MIC [µg/mL]
CCCC[C@H](CN(O)C=O)C(=O)N1CCC[C@H]1c1nnc(-c2ccc(C)cc2)s1 | 1 (≈ 2.4 µM)
CCCCc1ccc(-c2nnc([C@@H]3CCCN3C(=O)[C@H](CCCC)CN(O)C=O)s2)cc1 | 4 (≈ 8.72 µM)
CCCC[C@H](CN(O)C=O)C(=O)N1CCC[C@H]1c1nnc(-c2cscn2)s1 | 1 (≈ 2.44 µM)
CCCC[C@H](CN(O)C=O)C(=O)N1CCC[C@H]1c1nnc(-c2ccc([N+](=O)[O-])cc2C(F)(F)F)s1 | 2 (≈ 3.88 µM)
CCCC[C@H](CN(O)C=O)C(=O)N1CCC[C@H]1c1nnc(-c2ccnc(C(F)(F)F)c2)s1 | 0.5 (≈ 1.06 µM)
CCCC[C@H](CN(O)C=O)C(=O)N1CCC[C@H]1c1nnc(-c2ccc(OC)cc2)s1 | 0.5 (≈ 1.16 µM)

System: Staphylococcus aureus
Test: Antibacterial activity against methicillin-susceptible Staphylococcus aureus ATCC 13709 after 16 to 18 hrs by broth microdilution method
Format: functional
Settings: time 16-18 hrs

Structure (SMILES) | MIC [µg/mL]
CCCC[C@H](CN(O)C=O)C(=O)N1CCC[C@H]1c1nnc(-c2ccc(C)cc2)s1 | 1 (≈ 2.4 µM)
CCCCc1ccc(-c2nnc([C@@H]3CCCN3C(=O)[C@H](CCCC)CN(O)C=O)s2)cc1 | 4 (≈ 8.72 µM)
CCCC[C@H](CN(O)C=O)C(=O)N1CCC[C@H]1c1nnc(-c2cscn2)s1 | 1 (≈ 2.44 µM)
CCCC[C@H](CN(O)C=O)C(=O)N1CCC[C@H]1c1nnc(-c2ccc([N+](=O)[O-])cc2C(F)(F)F)s1 | 0.5 (≈ 0.97 µM)
CCCC[C@H](CN(O)C=O)C(=O)N1CCC[C@H]1c1nnc(-c2ccnc(C(F)(F)F)c2)s1 | 0.5 (≈ 1.06 µM)
CCCC[C@H](CN(O)C=O)C(=O)N1CCC[C@H]1c1nnc(-c2ccc(OC)cc2)s1 | 0.5 (≈ 1.16 µM)

System: Staphylococcus epidermidis
Test: Antibacterial activity against Staphylococcus epidermidis after 16 to 18 hrs by broth microdilution method
Format: functional
Settings: time 16-18 hrs

Structure (SMILES) | MIC [µg/mL]
CCCC[C@H](CN(O)C=O)C(=O)N1CCC[C@H]1c1nnc(-c2ccc(C)cc2)s1 | 2 (≈ 4.8 µM)
CCCCc1ccc(-c2nnc([C@@H]3CCCN3C(=O)[C@H](CCCC)CN(O)C=O)s2)cc1 | 8 (≈ 17.4 µM)
CCCC[C@H](CN(O)C=O)C(=O)N1CCC[C@H]1c1nnc(-c2cscn2)s1 | 0.25 (≈ 0.61 µM)
CCCC[C@H](CN(O)C=O)C(=O)N1CCC[C@H]1c1nnc(-c2ccc([N+](=O)[O-])cc2C(F)(F)F)s1 | 4 (≈ 7.76 µM)
CCCC[C@H](CN(O)C=O)C(=O)N1CCC[C@H]1c1nnc(-c2ccnc(C(F)(F)F)c2)s1 | 1 (≈ 2.12 µM)
CCCC[C@H](CN(O)C=O)C(=O)N1CCC[C@H]1c1nnc(-c2ccc(OC)cc2)s1 | 1 (≈ 2.31 µM)

System: Escherichia coli
Test: Antibacterial activity against Escherichia coli ATCC 25922 after 16 to 18 hrs by broth microdilution method
Format: functional
Settings: time 16-18 hrs

Structure (SMILES) | MIC [µg/mL]
CCCC[C@H](CN(O)C=O)C(=O)N1CCC[C@H]1c1nnc(-c2ccc(C)cc2)s1 | 16 (≈ 38.4 µM)
CCCCc1ccc(-c2nnc([C@@H]3CCCN3C(=O)[C@H](CCCC)CN(O)C=O)s2)cc1 | > 16
CCCC[C@H](CN(O)C=O)C(=O)N1CCC[C@H]1c1nnc(-c2cscn2)s1 | 64 (≈ 156 µM)
CCCC[C@H](CN(O)C=O)C(=O)N1CCC[C@H]1c1nnc(-c2ccc([N+](=O)[O-])cc2C(F)(F)F)s1 | > 16
CCCC[C@H](CN(O)C=O)C(=O)N1CCC[C@H]1c1nnc(-c2ccnc(C(F)(F)F)c2)s1 | 128 (≈ 271 µM)
CCCC[C@H](CN(O)C=O)C(=O)N1CCC[C@H]1c1nnc(-c2ccc(OC)cc2)s1 | > 16

System: Acinetobacter baumannii
Test: Antibacterial activity against Acinetobacter baumannii Bio 34235 after 16 to 18 hrs by broth microdilution method
Format: functional
Settings: time 16-18 hrs

Structure (SMILES) | MIC [µg/mL]
CCCC[C@H](CN(O)C=O)C(=O)N1CCC[C@H]1c1nnc(-c2ccc(C)cc2)s1 | > 16
CCCCc1ccc(-c2nnc([C@@H]3CCCN3C(=O)[C@H](CCCC)CN(O)C=O)s2)cc1 | > 16
CCCC[C@H](CN(O)C=O)C(=O)N1CCC[C@H]1c1nnc(-c2cscn2)s1 | 64 (≈ 156 µM)
CCCC[C@H](CN(O)C=O)C(=O)N1CCC[C@H]1c1nnc(-c2ccc([N+](=O)[O-])cc2C(F)(F)F)s1 | > 16
CCCC[C@H](CN(O)C=O)C(=O)N1CCC[C@H]1c1nnc(-c2ccnc(C(F)(F)F)c2)s1 | 64 (≈ 136 µM)
CCCC[C@H](CN(O)C=O)C(=O)N1CCC[C@H]1c1nnc(-c2ccc(OC)cc2)s1 | 16 (≈ 37 µM)

System: Staphylococcus aureus
Test: Antibacterial activity against methicillin-susceptible Staphylococcus aureus ATCC 29213 after 16 to 18 hrs by broth microdilution method
Format: functional
Settings: time 16-18 hrs

Structure (SMILES) | MIC [µg/mL]
CCCC[C@H](CN(O)C=O)C(=O)N1CCC[C@H]1c1nnc(-c2ccc(C)cc2)s1 | 1 (≈ 2.4 µM)
CCCCc1ccc(-c2nnc([C@@H]3CCCN3C(=O)[C@H](CCCC)CN(O)C=O)s2)cc1 | 4 (≈ 8.72 µM)
CCCC[C@H](CN(O)C=O)C(=O)N1CCC[C@H]1c1nnc(-c2cscn2)s1 | 1 (≈ 2.44 µM)
CCCC[C@H](CN(O)C=O)C(=O)N1CCC[C@H]1c1nnc(-c2ccc([N+](=O)[O-])cc2C(F)(F)F)s1 | 1 (≈ 1.94 µM)
CCCC[C@H](CN(O)C=O)C(=O)N1CCC[C@H]1c1nnc(-c2ccnc(C(F)(F)F)c2)s1 | 0.5 (≈ 1.06 µM)
CCCC[C@H](CN(O)C=O)C(=O)N1CCC[C@H]1c1nnc(-c2ccc(OC)cc2)s1 | 0.5 (≈ 1.16 µM)

System: Staphylococcus aureus
Test: Antibacterial activity against methicillin-resistant Staphylococcus aureus ATCC 43300 after 16 to 18 hrs by broth microdilution method
Format: functional
Settings: time 16-18 hrs

Structure (SMILES) | MIC [µg/mL]
CCCC[C@H](CN(O)C=O)C(=O)N1CCC[C@H]1c1nnc(-c2ccc(C)cc2)s1 | 1 (≈ 2.4 µM)
CCCCc1ccc(-c2nnc([C@@H]3CCCN3C(=O)[C@H](CCCC)CN(O)C=O)s2)cc1 | 2 (≈ 4.36 µM)
CCCC[C@H](CN(O)C=O)C(=O)N1CCC[C@H]1c1nnc(-c2cscn2)s1 | 0.5 (≈ 1.22 µM)
CCCC[C@H](CN(O)C=O)C(=O)N1CCC[C@H]1c1nnc(-c2ccc([N+](=O)[O-])cc2C(F)(F)F)s1 | 0.5 (≈ 0.97 µM)
CCCC[C@H](CN(O)C=O)C(=O)N1CCC[C@H]1c1nnc(-c2ccnc(C(F)(F)F)c2)s1 | 0.25 (≈ 0.53 µM)
CCCC[C@H](CN(O)C=O)C(=O)N1CCC[C@H]1c1nnc(-c2ccc(OC)cc2)s1 | 0.25 (≈ 0.578 µM)

System: Klebsiella pneumoniae
Test: Antibacterial activity against Klebsiella pneumoniae CICC 21611 after 16 to 18 hrs by broth microdilution method
Format: functional
Settings: time 16-18 hrs

Structure (SMILES) | MIC [µg/mL]
CCCC[C@H](CN(O)C=O)C(=O)N1CCC[C@H]1c1nnc(-c2ccc(C)cc2)s1 | > 16
CCCCc1ccc(-c2nnc([C@@H]3CCCN3C(=O)[C@H](CCCC)CN(O)C=O)s2)cc1 | > 16
CCCC[C@H](CN(O)C=O)C(=O)N1CCC[C@H]1c1nnc(-c2cscn2)s1 | 32 (≈ 78.1 µM)
CCCC[C@H](CN(O)C=O)C(=O)N1CCC[C@H]1c1nnc(-c2ccc([N+](=O)[O-])cc2C(F)(F)F)s1 | > 16
CCCC[C@H](CN(O)C=O)C(=O)N1CCC[C@H]1c1nnc(-c2ccnc(C(F)(F)F)c2)s1 | 64 (≈ 136 µM)
CCCC[C@H](CN(O)C=O)C(=O)N1CCC[C@H]1c1nnc(-c2ccc(OC)cc2)s1 | > 16

System: Staphylococcus aureus
Test: Antibacterial activity against methicillin-resistant Staphylococcus aureus Bio-090770 after 16 to 18 hrs by broth microdilution method
Format: functional
Settings: time 16-18 hrs

Structure (SMILES) | MIC [µg/mL]
CCCC[C@H](CN(O)C=O)C(=O)N1CCC[C@H]1c1nnc(-c2ccc(C)cc2)s1 | 1 (≈ 2.4 µM)
CCCCc1ccc(-c2nnc([C@@H]3CCCN3C(=O)[C@H](CCCC)CN(O)C=O)s2)cc1 | 4 (≈ 8.72 µM)
CCCC[C@H](CN(O)C=O)C(=O)N1CCC[C@H]1c1nnc(-c2cscn2)s1 | 2 (≈ 4.88 µM)
CCCC[C@H](CN(O)C=O)C(=O)N1CCC[C@H]1c1nnc(-c2ccc([N+](=O)[O-])cc2C(F)(F)F)s1 | 1 (≈ 1.94 µM)
CCCC[C@H](CN(O)C=O)C(=O)N1CCC[C@H]1c1nnc(-c2ccnc(C(F)(F)F)c2)s1 | 1 (≈ 2.12 µM)
CCCC[C@H](CN(O)C=O)C(=O)N1CCC[C@H]1c1nnc(-c2ccc(OC)cc2)s1 | 1 (≈ 2.31 µM)

System: Acinetobacter baumannii
Test: Antibacterial activity against drug-resistant Acinetobacter baumannii Bio 53272 after 16 to 18 hrs by broth microdilution method
Format: functional
Settings: time 16-18 hrs

Structure (SMILES) | MIC [µg/mL]
CCCC[C@H](CN(O)C=O)C(=O)N1CCC[C@H]1c1nnc(-c2ccc(C)cc2)s1 | 8 (≈ 19.2 µM)
CCCCc1ccc(-c2nnc([C@@H]3CCCN3C(=O)[C@H](CCCC)CN(O)C=O)s2)cc1 | > 16
CCCC[C@H](CN(O)C=O)C(=O)N1CCC[C@H]1c1nnc(-c2cscn2)s1 | 16 (≈ 39.1 µM)
CCCC[C@H](CN(O)C=O)C(=O)N1CCC[C@H]1c1nnc(-c2ccc([N+](=O)[O-])cc2C(F)(F)F)s1 | > 16
CCCC[C@H](CN(O)C=O)C(=O)N1CCC[C@H]1c1nnc(-c2ccnc(C(F)(F)F)c2)s1 | 16 (≈ 33.9 µM)
CCCC[C@H](CN(O)C=O)C(=O)N1CCC[C@H]1c1nnc(-c2ccc(OC)cc2)s1 | > 8
